Laboratory results published in patent US11654203B2.

Legend:
[1] = test system: human colorectal cancer cells (HCT15); test: NanoSPECT/CT imaging of colorectal cancer animal model; format: in vivo, BALB/c nude mouse; conditions: caudal vein, 25 mCi/kg, imaged at 2, 4, 24, 48 h
Procedure: (1) Each BALB/c nude mouse that was 8 weeks old was subjected to subcutaneous injection of human colorectal cancer cells (HCT15, 1*10^6 cells) on a right hind leg, grew for 10-14 d, and started to be dosed with the drug when a cell tumor grew to a size of 50-100 mm^3.
(3) NanoSPECT/CT image analysis was carried out at 2nd h, 4th h, 24th h and 48th h after animal dosage (brand: Mediso).
(4) Obtained images were subjected to image recombination and outputting by VivoQuamt software.

[2] = test system: human colorectal cancer cells (HCT15); test: Colorectal cancer animal bio-distribution (gamma counter); format: in vivo, BALB/c nude mouse; conditions: 25 mCi/kg, n=3
From the text: (3) There were four time points in each group and three mice at each time point.
(4) The animals were sacrificed at 2nd h, 4th h, 24th h and 48th h after dosage to take organs (brain, heart, lung, liver, kidney, spleen, stomach, large intestine, small intestine, tumor, muscle and blood).
(5) Tissue organs were weighed, and radioactivities were counted and read by a gamma counter.
(6) With a percentage (%) of a radioactivity count of Injected Dose (ID) in a radioactivity count of each gram (g) of tissue as unit (% ID/g), the line graph was drawn for showing.
The value was a percentage of Injected Dose in each gram of organs (% ID/g). […] Data was represented by an average value ±SEM (n=3).

## O=C([O-])CN1CCN(CC(=O)[O-])CCN(CC(=O)[O-])CCN(CC(=O)[O-])CC1.[111In+3] [^111In-DOTA]
[1]
  drug gathering at tumor hypoxia position, nanoSPECT/CT: no obvious drug gathering phenomenon
[2]; 2nd h after caudal vein dosage
  tumor absorbability: 0.88 % ID/g
[2]; 24th h after caudal vein dosage
  gathering degree at the tumor hypoxia position: 1.08 % ID/g
